Assays:
[1] = Inhibition of human coronary artery smooth muscle cells (SMC's) proliferation, induced by platelet-derived growth factor (PDGF-BB) 20 ng mL.; format: functional
[2] = Evaluated for inhibition of proliferation of human coronary artery endothelial cells (ECs), induced by 5 % FBS.; format: functional, cell-based; conditions: Endothelial cell
[3] = Ratio of inhibitory activity on proliferation of human coronary artery smooth muscle cells to that of human coronary artery endothelial cells; format: functional, Endothelial cell

| SMILES | IC50 [1] [nM] | IC50 [2] [nM] | Ratio [3] |
| --- | --- | --- | --- |
| COc1cc(C(=O)Nc2ccc(Cl)cc2C(N)=O)cc(OC)c1OC | > 2000 |  |  |
| CCOC(=O)c1ccccc1NC(=O)/C=C/c1ccc(OC)c(OC)c1 | > 50000 | 9500 |  |
| CCOC(=O)c1cc(OC)c(OC)cc1NC(=O)c1cc(OC(C)=O)c(OC(C)=O)c(OC(C)=O)c1 | > 2000 |  |  |
| COc1cc(C(=O)Nc2cc(C)ccc2C(N)=O)cc(OC)c1OC | > 2000 |  |  |
| COc1cc(C(=O)Nc2cc([N+](=O)[O-])ccc2C(N)=O)cc(OC)c1OC | 1600 | < 2000 |  |
| CCOC(=O)c1cc(OC)c(OC)cc1NC(=O)c1ccc(OC(C)=O)c(OC(C)=O)c1 | 2200 |  |  |
| CCOC(=O)c1cc(OC)c(OC)cc1NC(=O)c1ccc(O)c(N)c1 | > 2000 |  |  |
| COc1ccc(C(=O)Nc2cc(OC)c(OC)cc2C(=O)O)cc1OC | > 2000 |  |  |
| COc1cc(C(=O)Nc2ccccc2C(N)=O)cc(OC)c1OC | > 2000 |  |  |
| CCOC(=O)c1cc(OC)c(OC)cc1NC(=O)c1ccc(OC(C)=O)c(OC)c1 | 2800 |  |  |
| COc1ccc(C(=O)Nc2cc(OC)c(OC)cc2C(N)=O)cc1OC | 720 | > 10000 | >14 |
| CCOC(=O)c1cc(OC)c(OC)cc1NC(=O)c1ccc(OC)cc1 | 610 | < 2000 |  |
| COc1ccc(NC(=O)c2ccc(OC)c(OC)c2)cc1OC | > 2000 |  |  |
| CNC(=O)c1cc(OC)c(OC)cc1NC(=O)c1ccc(OC)c(OC)c1 | > 2000 |  |  |
| CCOC(=O)c1cc(OC)c(OC)cc1NC(=O)c1ccccc1OC | 800 | 3800 | 5 |
| CCOC(=O)c1cc(OC)c(OC)cc1NC(=O)c1ccc(OC)c(OC)c1 | 850 | 6000 | 7 |
| COc1cc(C(=O)Nc2cc(N)ccc2C(N)=O)cc(OC)c1OC | > 2000 |  |  |
| COc1ccc(C(=O)Nc2cc(OC)c(OC)cc2C(=O)N(C)C)cc1OC | > 2000 |  |  |
| COc1ccc(C(=O)Nc2cc(OC)c(OC)cc2C#N)cc1OC | > 2000 |  |  |
| COc1cc(C(=O)Nc2cc(F)c(F)cc2C(N)=O)cc(OC)c1OC | 2000 | > 10000 | >5 |
| CCOC(=O)c1cc(OC)c(OC)cc1NC(=O)c1ccc(OC(C)=O)cc1 | 1300 | 5200 | 4 |
| CCOC(=O)c1cc(OC)c(OC)cc1NC(=O)c1ccc(OC)c(OC)c1OC | 410 | 2900 | 7 |
| CCOC(=O)c1cc(OC)c(OC)cc1NC(=O)c1cc(OC)c(OC)c(OC)c1 | 310 | 4600 | 15 |
| CCOC(=O)c1cc(OC)c(OC)cc1NC(=O)c1ccc(O)c([N+](=O)[O-])c1 | 1800 | 7200 | 4 |
| COc1ccc(/C=C/C(=O)Nc2ccccc2C(N)=O)cc1OC | 16700 | 34500 | 2 |
| CCOC(=O)c1cc(OC)c(OC)cc1NC(=O)c1cc(OC)c(OC(C)=O)c(OC)c1 | 3100 |  |  |
| CCOC(=O)c1cc(OC)c(OC)cc1NC(=O)c1cccc(OC)c1 | 1600 | 6100 | 4 |
| CCOC(=O)c1cc(OC)c(OC)cc1NC(=O)Cc1ccc(OC)c(OC)c1 | 800 | 4700 | 6 |
| CCOC(=O)c1cc(OC)c(OC)cc1NC(=O)/C=C\c1ccc(OC)c(OC)c1 | 1200 | 4100 | 4 |
| COc1ccc(/C=C/C(=O)Nc2ccccc2C(=O)O)cc1OC [TRANILAST] | 24500 | 19100 | 0.8 |
